Structures are written as SMILES. Read-outs that look alike come from different tables or passages of the source.

In one assay the test system is Botrytis cinerea. As to the kind of experiment: Fungicidal efficacy trial (% control) on Botrytis cinerea, synergy by Colby's equation. It counts as cell-based. Conditions: concentration 0.01 mg/L, observed efficacy. The source says: [table] Colby's equation was used to determine the fungicidal effects expected from the mixtures. The following equation was used to calculate the expected activity of mixtures containing two active ingredients, A and B: Expected=A+B−(A×B/100) • A=observed efficacy of active component A at the same concentration as used in the mixture; • B=observed efficacy of active component B at the same concentration as used in the mixture.

In assay [1] the test system is spores of Botrytis cinerea. As to the kind of experiment: EC50 for in vitro inhibition of 50% of fungal population of spores of Botrytis cinerea. It counts as cell-based. As for the experimental part:
As used herein, according to the Fungicide Resistance Action Committee (FRAC), ‘EC50’ is defined as the fungicide dose that inhibits growth by 50% when compared with a nonamended control.
The EC50 values were evaluated to determine a lower concentration of the fungicides and the combination to achieve in vitro inhibition of 50% of fungal population of spores of Botrytis cinerea.

Regarding `O=C1C2CC=CCC2C(=O)N1SC(Cl)(Cl)Cl` (stereo not shown) [Captan], the “% control” value in the assay with Botrytis cinerea is 11.54%. Also, in assay [1] (read-out: EC50), the half-maximal effective concentration (EC50) was 0.15 µg/mL.
Turning to `COc1ccnc(C(=O)N[C@H]2COC(=O)[C@H](Cc3ccccc3)[C@@H](OC(=O)C(C)C)[C@H](C)OC2=O)c1OCOC(=O)C(C)C` [Fenpicoxamide], the “% control” value with Botrytis cinerea came out at 15.45%. Besides, in assay [1], the EC50 came to 0.46 µg/mL.

One may read the EC50 as the concentration needed to bring the measured effect to its halfway point.
